In EP0185961A2, “1-Phenyl-imidazole-5-carboxylic acid derivatives, process for their preparation and their use as growth regulators” (HOECHST AKTIENGESELLSCHAFT, priority 1984, dated 1986):

What was measured:
Gerste = assay: Growth inhibition in cereals, greenhouse tray test, sprayed at 3-leaf stage; format: in vivo; conditions: % of growth increment of untreated controls, read-out: Wuchsshemmung in % bei Gerste; for pest or weed control at 1250 g/ha: 1,25 kg/ha; for pest or weed control at 2500 g/ha: 2,5 kg/ha
Source text: (§1) In Schalenversuchen im Gewächshaus werden junge Getreidepflanzen (Weizen, Gerste, Roggen) im 3-Blattstadium mit erfindungsgemäßen Verbindungen in verschiedenen Wirkstoffkonzentrationen (kg/ha) tropfnaß gespritzt.
(§2) Es wird außerdem die phytotoxische Wirkung der Verbindung beobachtet.

Sojabohnen [1] = conditions: in vivo
Source text: (§4) Etwa 10 cm große Sojabohnen werden mit den Wirkstoffzubereitungen tropfnaß bespritzt. Nach 3 Wochen wird bonitiert.
(§5) Die Wuchshemmung wird als prozentualer Wert ermittelt, wobei 100% den Stillstand des Wachstums und 0% ein Wachstum entsprechend dem der unbehandelten Kontrollpflanzen bedeuten.

Weizen = assay: Growth inhibition in cereals, greenhouse tray test, sprayed at 3-leaf stage; format: in vivo; conditions: % of growth increment of untreated controls (100% = growth standstill), read-out: Wuchsshemmung in % bei Weizen; for pest or weed control at 1250 g/ha: 1,25 kg/ha; for pest or weed control at 2500 g/ha: 2,5 kg/ha
Source text: (§3) In Schalenversuchen im Gewächshaus werden junge Getreidepflanzen (Weizen, Gerste, Roggen) im 3-Blattstadium mit erfindungsgemäßen Verbindungen in verschiedenen Wirkstoffkonzentrationen (kg/ha) tropfnaß gespritzt. […]

Roggen = assay: as above; format: in vivo; conditions: % of growth increment of untreated controls, read-out: Wuchsshemmung in % bei Roggen; for pest or weed control at 1250 g/ha: 1,25 kg/ha; for pest or weed control at 2500 g/ha: 2,5 kg/ha
Source text: as §3

Reispflanzen [2] = assay: Growth inhibition in paddy rice, small plots; conditions: Oryza sativa, 504 h, read-out: Wuchsshemmung (%)
Source text: (§6) Reispflanzen werden in Kleinparzellen (2 m x 2 m) angezogen und im Stadium der maximalen Bestockung mit erfindungsgemäßen Verbindungen behandelt. Die Substanzen werden sowohl durch Spritzung appliziert als auch in das Wasser gegeben.
(§7) 3 Wochen nach der Behandlung wird bei allen Pflanzen der Zuwachs gemessen und die Wuchshemmung in % des Zuwachses der Kontrollpflanzen berechnet. Es wird außerdem auf eine mögliche phytotoxische Wirkung der Verbindungen geachtet.
as §5

Reispflanzen [3] = conditions: in vivo
Source text: as §6, §7, §5

Sojabohnen [4] = assay: Growth inhibition in soybeans; conditions: Glycine max, 504 h, read-out: Wuchsshemmung (%)
Source text: as §4, §5

[5] = tested on: Getreidepflanzen (Weizen, Gerste, Roggen); assay: Phytotoxic effect observed in the cereal growth inhibition test; format: in vivo; conditions: cereals; one cell for 2,5 and 1,25 kg/ha
Source text: as §1, §2

Compound | pest or weed control at 1250 g/ha (Gerste) [%] | pest or weed control at 2500 g/ha (Gerste) [%] | Phytotox. Wirkung (Sojabohnen [1]) | pest or weed control at 1250 g/ha (Weizen) [%] | pest or weed control at 2500 g/ha (Weizen) [%] | pest or weed control at 1250 g/ha (Roggen) [%] | pest or weed control at 2500 g/ha (Roggen) [%] | pest or weed control at 620 g/ha (Reispflanzen [2]) [%] | pest or weed control at 1250 g/ha (Reispflanzen [2]) [%] | Phytotox. Wirkung (Reispflanzen [3]) | pest or weed control at 2500 g/ha (Sojabohnen [4]) [%] | Phytotox. Wirkung [5]
CCc1cccc(CC)c1-n1cncc1C1=NC(C)(C)CO1 [Beispiel 6, 1-(2,6-Diethylphenyl)-5-(4,4-dimethyl-2-oxazolin-2-yl)-imidazol] | 13 | 25 | keine Schäden | 8 | 17 | 9 | 17 | 11 | 18 | keine Schäden | 19 | keine Schäden
CCc1cccc(CC)c1-n1cncc1-c1nc(C)no1 [Beispiel 7, 1-(2,6-Diethylphenyl)-5-(3-methyl-1,2,4-oxdiazol-5-yl)-imidazol] | 19 | 39 | keine Schäden | 15 | 24 | 21 | 28 | 15 | 24 | keine Schäden | 26 | keine Schäden
CCc1cccc(CC)c1-n1cncc1C(N)=NO [Beispiel 8, 1-(2,6-Diethylphenyl)-imidazol-5-carboxamidoxim] | 18 | 34 | keine Schäden | 12 | 22 | 17 | 25 | 12 | 22 | keine Schäden | 21 | keine Schäden
CCc1cccc(CC)c1-n1cncc1CO [Beispiel 12, 1-(2,6-Diethylphenyl)-5-hydroxymethyl-imidazol] | 17 | 33 | keine Schäden | 11 | 23 | 17 | 24 | 13 | 21 | keine Schäden | 21 | keine Schäden
CCc1cccc(CC)c1-n1cncc1C=O [Beispiel 13, 1-(2,6-Diethylphenyl)-5-formyl-imidazol] | 19 | 37 | keine Schäden | 15 | 24 | 19 | 27 | 16 | 24 | keine Schäden | 25 | keine Schäden
CCc1cccc(CC)c1-n1cncc1C(=O)OC1CCCCC1 [Beispiel 36] | 17 | 33 | keine Schäden | 10 | 19 | 13 | 23 | 14 | 21 | keine Schäden | 19 | keine Schäden
CCc1cccc(CC)c1-n1cncc1C(=O)ON=C(C)C [Beispiel 40] | 19 | 38 | keine Schäden | 16 | 25 | 21 | 27 | 18 | 25 | keine Schäden | 26 | keine Schäden
CCc1cccc(CC)c1-n1cncc1C(=O)ON=C(C)C(C)C [Beispiel 42] | 16 | 31 | keine Schäden | 12 | 21 | 14 | 19 | 14 | 19 | keine Schäden | 19 | keine Schäden
CCc1cccc(CC)c1-n1cncc1C(=O)ON=C(C)C1CC1 [Beispiel 45] | 15 | 32 | keine Schäden | 11 | 19 | 15 | 22 | 13 | 19 | keine Schäden | 18 | keine Schäden
CCc1cccc(CC)c1-n1cncc1C(=O)ON=C1CCCCC1 [Beispiel 51] | 18 | 37 | keine Schäden | 16 | 25 | 20 | 27 | 19 | 26 | keine Schäden | 24 | keine Schäden
CCOC(=O)CSC(=O)c1cncn1-c1c(CC)cccc1CC [Beispiel 54] | 19 | 33 | keine Schäden | 13 | 22 | 18 | 24 | 14 | 21 | keine Schäden | 19 | keine Schäden
CCc1cccc(CC)c1-n1cncc1C(=O)NCC#N [Beispiel 57] | 18 | 31 | keine Schäden | 12 | 23 | 17 | 23 | 13 | 20 | keine Schäden | 18 | keine Schäden
CCc1cccc(CC)c1-n1cncc1C(=O)NCC(=O)O [Beispiel 60] | 19 | 32 | keine Schäden | 13 | 23 | 17 | 24 | 13 | 21 | keine Schäden | 21 | keine Schäden
